Source: US10246425B2, “3,5-diamino-6-chloro-N-(N-(4-phenylbutyl)carbamimidoyl) pyrazine-2-carboxamide compounds” (Parion Sciences, Inc., priority 2012, dated 2019)
Structures can show the parent of a compound that is named as a salt.

Test system: human bronchial epithelial (HBE) cells
Assay: Airway surface liquid drug (ASL) clearance and metabolism by human airway epithelium
Type: in vitro ADME
Conditions: Table 4: HBE cells, 25 μL of 25 μM apical, 2 h, mean ± SD; for % of Initial Drug Mass on Apical Side (Parent and metabolite, 2 h): 37° C.
Protocol: Assay 3. Airway Surface Liquid Drug (ASL) Clearance and Metabolism by Human Airway Epithelium
(§1) The disappearance of Compound II-d from the apical surface and airway epithelial metabolism were assessed in human bronchial epithelial (HBE) cells (Table 3). In these experiments 25 μL of a 25 μM solution of ENaC blocker was added to the apical surface of HBE cells grown at an air/liquid interface, and the drug concentration in the apical and basolateral compartment was measured over 2 h by UPLC.
as §1, with “Therefore, the compounds of Formula (A) have a longer half-life on mucosal surfaces compared to these know compounds as evidenced by the data shown in Table 4. The” for “The”, “HBE and compared to Comparative Example 1” for “human bronchial epithelial (HBE) cells”, “4).” for “3).”

SMILES	% of Apical Mass as Metabolites (2 h)	% of Initial Apical Mass on Basolateral Side (2 h)	% on Basolateral Side as Metabolites (2 h)	% of Initial Drug Mass on Apical Side (Parent and metabolite, 2 h)
CCCCCCN(CCCN[C@@H](Cc1ccc2cc(CCCCNC(=N)NC(=O)c3nc(Cl)c(N)nc3N)ccc2c1)C(N)=O)C[C@H](O)[C@@H](O)[C@H](O)[C@H](O)CO [IX-m, 3,5-diamino-N—(N-(4-(6-((S)-3-amino-2-(3-(hexyl((2S,3R,4R,5R)-2,3,4,5,6-pentahydroxyhexyl)amino)propylamino)-3-oxopropyl)naphthalen-2-yl)butyl)carbamimidoyl)-6-chloropyrazine-2-carboxamide]	None	1.1 ± 0.2%	None	–
N=C(NCCCCc1ccc2cc(C[C@H](NCCCN(C[C@H](O)[C@@H](O)[C@H](O)[C@H](O)CO)C[C@H](O)[C@@H](O)[C@H](O)[C@H](O)CO)C(N)=O)ccc2c1)NC(=O)c1nc(Cl)c(N)nc1N [X-d, 3,5-diamino-N—(N-(4-(6-((S)-3-amino-2-(3-(bis((2S,3R,4R,5R)-2,3,4,5,6-pentahydroxyhexyl)amino)propylamino)-3-oxopropyl)naphthalen-2-yl)butyl)carbamimidoyl)-6-chloropyrazine-2-carboxamide]	None	5.0 ± 3.3%	None	–
CCCCCCN(CCCN[C@@H](CCc1ccc(CCCCNC(=N)NC(=O)c2nc(Cl)c(N)nc2N)c2ccccc12)C(N)=O)C[C@H](O)[C@@H](O)[C@H](O)[C@H](O)CO [VI-d, 3,5-diamino-N—(N-(4-(4-((S)-4-amino-3-(3-(hexyl((2S,3R,4R,5R)-2,3,4,5,6-pentahydroxyhexyl)amino)propylamino)-4-oxobutyl)naphthalen-1-yl)butyl)carbamimidoyl)-6-chloropyrazine-2-carboxamide hydrochloride]	None	1.2 ± 0.5%	None	–
Cl.N=C(NCCCCc1ccc(CC[C@H](NCCCN(C[C@H](O)[C@@H](O)[C@H](O)[C@H](O)CO)C[C@H](O)[C@@H](O)[C@H](O)[C@H](O)CO)C(N)=O)c2ccccc12)NC(=O)c1nc(Cl)c(N)nc1N [V-d, 3,5-diamino-N—(N-(4-(4-((S)-4-amino-3-(3-(bis((2S,3R,4R,5R)-2,3,4,5,6-pentahydroxyhexyl)amino)propylamino)-4-oxobutyl)naphthalen-1-yl)butyl)carbamimidoyl)-6-chloropyrazine-2-carboxamide hydrochloride]	none	9.3 ± 0.86%	None	–
CCCCCCN(CCCN[C@@H](Cc1ccc(CCCCNC(=N)NC(=O)c2nc(Cl)c(N)nc2N)c2c1CCCC2)C(N)=O)C[C@H](O)[C@@H](O)[C@H](O)[C@H](O)CO [XII-d, 3,5-diamino-N—(N-(4-(4-((S)-3-amino-2-(3-(hexyl((2S,3R,4R,5R)-2,3,4,5,6-pentahydroxyhexyl)amino)propylamino)-3-oxopropyl)-5,6,7,8-tetrahydronaphthalen-1-yl)butyl)carbamimidoyl)-6-chloropyrazine-2-carboxamide]	None	9.6 ± 6.3%	None	–
CCCCCCN(CCCN[C@@H](CCc1ccc(CCCCNC(=N)NC(=O)c2nc(Cl)c(N)nc2N)cc1)C(N)=O)C[C@H](O)[C@@H](O)[C@H](O)[C@H](O)CO [III-d, 3,5-diamino-N—(N-(4-(4-((S)-4-amino-3-(3-(hexyl((2S,3R,4R,5R)-2,3,4,5,6-pentahydroxyhexyl)amino)propylamino)-4-oxobutyl)phenyl)butyl)carbamimidoyl)-6-chloropyrazine-2-carboxamide]	none	3.5 ± 2.2%	None	–
N=C(NCCCCc1ccc(C[C@H](NCCCN(C[C@H](O)[C@@H](O)[C@H](O)[C@H](O)CO)C[C@H](O)[C@@H](O)[C@H](O)[C@H](O)CO)C(N)=O)c2c1CCCC2)NC(=O)c1nc(Cl)c(N)nc1N [XI-cc, 3,5-diamino-N—(N-(4-(4-((S)-3-amino-2-(3-(bis((2S,3R,4R,5R)-2,3,4,5,6-pentahydroxyhexyl)amino)propylamino)-3-oxopropyl)-5,6,7,8-tetrahydronaphthalen-1-yl)butyl)carbamimidoyl)-6-chloropyrazine-2-carboxamide]	None	1.8 ± 0.3%	None	–

Further lines, results first:

% of Apical Mass as Metabolites (2 h)	% of Initial Apical Mass on Basolateral Side (2 h)	% on Basolateral Side as Metabolites (2 h)	% of Initial Drug Mass on Apical Side (Parent and metabolite, 2 h)	SMILES
None	0.32 ± 0.6%	None	–	CCCCCCN(CCCN[C@@H](CCc1ccc2cc(CCCCNC(=N)NC(=O)c3nc(Cl)c(N)nc3N)ccc2c1)C(N)=O)C[C@H](O)[C@@H](O)[C@H](O)[C@H](O)CO [XIV-d, 3,5-diamino-N—(N-(4-(6-((S)-4-amino-3-(3-(hexyl((2S,3R,4R,5R)-2,3,4,5,6-pentahydroxyhexyl)amino)propylamino)-4-oxobutyl)naphthalen-2-yl)butyl)carbamimidoyl)-6-chloropyrazine-2-carboxamide]
None	1.81 ± 1.6%	None	–	N=C(NCCCCc1ccc(CC[C@H](NCCCN(C[C@H](O)[C@@H](O)[C@H](O)[C@H](O)CO)C[C@H](O)[C@@H](O)[C@H](O)[C@H](O)CO)C(N)=O)c2c1CCCC2)NC(=O)c1nc(Cl)c(N)nc1N [XV-dd, 3,5-diamino-N—(N-(4-(4-((S)-4-amino-3-(3-(bis((2S,3R,4R,5R)-2,3,4,5,6-pentahydroxyhexyl)amino)propylamino)-4-oxobutyl)-5,6,7,8-tetrahydronaphthalen-1-yl)butyl)carbamimidoyl)-6-chloropyrazine-2-carboxamide]
None	1.9 ± 1.7%	None	76.6 ± 14.7%	CCCCCCN(CCCN[C@@H](Cc1ccc(CCCCNC(=N)NC(=O)c2nc(Cl)c(N)nc2N)cc1)C(N)=O)C[C@H](O)[C@@H](O)[C@H](O)[C@H](O)CO [XVII-d]
None	4.2 ± 1.9%	None	–	N=C(NCCCCc1ccc2cc(CC[C@H](NCCCN(C[C@H](O)[C@@H](O)[C@H](O)[C@H](O)CO)C[C@H](O)[C@@H](O)[C@H](O)[C@H](O)CO)C(N)=O)ccc2c1)NC(=O)c1nc(Cl)c(N)nc1N [XIII-bb, 3,5-diamino-N—(N-(4-(6-((S)-4-amino-3-(3-(bis((2S,3R,4R,5R)-2,3,4,5,6-pentahydroxyhexyl)amino)propylamino)-4-oxobutyl)naphthalen-2-yl)butyl)carbamimidoyl)-6-chloropyrazine-2-carboxamide]
None	14.9 ± 1.4%	None	77.7 ± 12.2%	N=C(NCCCCc1ccc(C[C@H](NCCCN(C[C@H](O)[C@@H](O)[C@H](O)[C@H](O)CO)C[C@H](O)[C@@H](O)[C@H](O)[C@H](O)CO)C(N)=O)cc1)NC(=O)c1nc(Cl)c(N)nc1N [XVI-ee]
